Experimental data published in PMC7864192 (Cancers, 2021).
Like-named read-outs stand apart in the source and are kept apart here.

Legend:
[1] = system: GCPA096 T1.I patient-derived AGCT cell line; assay: Cell viability drug screen (Cell Titer Glo 2.0, 72 h), mono- and combination therapy, GCPA096T1.I; settings: Homo sapiens, read-out: IC50 in monotherapy
[2] = system: GCPA007 T2.IV patient-derived AGCT cell line; assay: Cell viability drug screen (Cell Titer Glo 2.0, 72 h), mono- and combination therapy, GCPA007T2.IV; settings: Homo sapiens, read-out: IC50 in monotherapy
Method: (§1) Cell lines were seeded at a density of 500 cells/well in 40 uL in 384-well plates (Corning, NY, USA) with the Multidrop™ cell dispenser (Thermo Fischer Scientific, Waltham, MA, USA) and sealed with Breathe-Easy® membrane (Sigma-Aldrich, St. Louis, MO, USA) to prevent evaporation. […] For each cell line, three biological repeats and two technical repeats each were performed in order to ensure the validity of the drug screens. […] Subsequently, 11 drugs and 12 drug combinations were dispensed and all wells (excluding blanks and non-DMSO control wells) were normalized to 1% DMSO using the HP Tecan D300e Digital Dispenser (Hewlett-Packard, Palo Alto, CA, USA). […] Next, the plates were covered with the Breathe-Easy membrane and incubated. After 72 h, the Multidrop dispensed 15 uL per well of Cell Titer Glo 2.0 (Thermo Fischer Scientific, Waltham, MA, USA) and plates were incubated in the dark for 10 min. After incubation, luminescence excitation was assessed in the Spectramax reader (Molecular Devices, San Jose, CA, USA) (top read, luminescence excitation at 500 nm) and raw data were processed in Microsoft Excel to subtract background luminescence. The Z-factor, a mathematical method used to quantify the quality of a drug screen based on the calculation of the separation band between the values of the positive and negative controls, was utilized to assess the quality of drug screens [54]. Screens with a Z-factor value of >0.5 were used for further analysis.
(§2) Overall cell survival (in %) was plotted against the drug concentration range of each drug (in log10[μM]) using GraphPad Prism 8.3.1. Values that exceeded 100% survival (within +20% biological deviation) were normalized to 100% survival. Similarly, values below 0% cell survival (within −20% biological deviation) were normalized to 0% survival. Values exceeding this deviation were excluded. Dose–response curves were obtained using the model “log(inhibitor) vs. variable slope (normalized response)” to fit the dose–response curves and R^2 values were used to indicate how well the model fit the data (Supplementary Materials Figures S4 and S5). […] The IC50 values were calculated based on the Chou–Talalay method using Compusyn software [55]. For anti-hormonal treatment, mostly provided as maintenance therapy, we used IC10 values in addition to the IC50.
(§3) In addition to the 11 monotherapies, 12 drug combinations were tested (Table 3) simultaneously with the individual drug treatments in the same 384-well plate. […] Synergy was evaluated using the mass action law, a systematic analysis assessing dose–response dynamics in a cost-effective manner [56, 57]. The combination index (CI) was used to indicate antagonistic (CI > 1) additive (CI = 1) and synergistic (CI < 1) effects [55].

[3] = system: GCPA096 T1.XV patient-derived AGCT cell line; assay: Cell viability drug screen (Cell Titer Glo 2.0, 72 h), mono- and combination therapy, GCPA096T1.XV; settings: Homo sapiens, 72 h, read-out: IC50 in monotherapy
Method: (§4) Cell lines were seeded at a density of 500 cells/well in 40 uL in 384-well plates (Corning, NY, USA) with the Multidrop™ cell dispenser (Thermo Fischer Scientific, Waltham, MA, USA) and sealed with Breathe-Easy® membrane (Sigma-Aldrich, St. Louis, MO, USA) to prevent evaporation. The SVOG-3e line was seeded at 1000 cells/well due to contact-dependent growth requirements. For each cell line, three biological repeats and two technical repeats each were performed in order to ensure the validity of the drug screens. […] Subsequently, 11 drugs and 12 drug combinations were dispensed and all wells (excluding blanks and non-DMSO control wells) were normalized to 1% DMSO using the HP Tecan D300e Digital Dispenser (Hewlett-Packard, Palo Alto, CA, USA). All drugs were applied in linear concentration ranges (Table 2), including 16 data points to enable combination drug testing at constant ratios (Table 3). Next, the plates were covered with the Breathe-Easy membrane and incubated. After 72 h, the Multidrop dispensed 15 uL per well of Cell Titer Glo 2.0 (Thermo Fischer Scientific, Waltham, MA, USA) and plates were incubated in the dark for 10 min. After incubation, luminescence excitation was assessed in the Spectramax reader (Molecular Devices, San Jose, CA, USA) (top read, luminescence excitation at 500 nm) and raw data were processed in Microsoft Excel to subtract background luminescence. The Z-factor, a mathematical method used to quantify the quality of a drug screen based on the calculation of the separation band between the values of the positive and negative controls, was utilized to assess the quality of drug screens [54]. Screens with a Z-factor value of >0.5 were used for further analysis.
(§5) Overall cell survival (in %) was plotted against the drug concentration range of each drug (in log10[μM]) using GraphPad Prism 8.3.1. Values that exceeded 100% survival (within +20% biological deviation) were normalized to 100% survival. Similarly, values below 0% cell survival (within −20% biological deviation) were normalized to 0% survival. Values exceeding this deviation were excluded. Dose–response curves were obtained using the model “log(inhibitor) vs. variable slope (normalized response)” to fit the dose–response curves and R^2 values were used to indicate how well the model fit the data (Supplementary Materials Figures S4 and S5). […] The maximum plasma concentration (Cmax) and the plasma concentration at steady state (Css) were used as toxicity thresholds. The Cmax was utilized for drugs in which short, high-dosage time courses are required, while the Css was used for maintenance therapy regimes such as anti-hormonal treatment. […] The IC50 values were calculated based on the Chou–Talalay method using Compusyn software [55]. For anti-hormonal treatment, mostly provided as maintenance therapy, we used IC10 values in addition to the IC50.
as §3

[4] = system: GCPA113 T1.I patient-derived AGCT cell line; assay: Cell viability drug screen (Cell Titer Glo 2.0, 72 h), mono- and combination therapy, GCPA113T1.I; settings: Homo sapiens, read-out: IC50 in monotherapy
[5] = system: GCPA113 T1.II patient-derived AGCT cell line; assay: Cell viability drug screen (Cell Titer Glo 2.0, 72 h), mono- and combination therapy, GCPA113T1.II; settings: Homo sapiens, read-out: IC50 in monotherapy
Method: as §1, §2, §3

[6] = system: GCPA007 T2.I patient-derived AGCT cell line; assay: Cell viability drug screen (Cell Titer Glo 2.0, 72 h), mono- and combination therapy, GCPA007T2.I; settings: Homo sapiens, 72 h, read-out: IC50 in monotherapy
Method: (§6) Cell lines were seeded at a density of 500 cells/well in 40 uL in 384-well plates (Corning, NY, USA) with the Multidrop™ cell dispenser (Thermo Fischer Scientific, Waltham, MA, USA) and sealed with Breathe-Easy® membrane (Sigma-Aldrich, St. Louis, MO, USA) to prevent evaporation. The SVOG-3e line was seeded at 1000 cells/well due to contact-dependent growth requirements. For each cell line, three biological repeats and two technical repeats each were performed in order to ensure the validity of the drug screens. […] Subsequently, 11 drugs and 12 drug combinations were dispensed and all wells (excluding blanks and non-DMSO control wells) were normalized to 1% DMSO using the HP Tecan D300e Digital Dispenser (Hewlett-Packard, Palo Alto, CA, USA). All drugs were applied in linear concentration ranges (Table 2), including 16 data points to enable combination drug testing at constant ratios (Table 3). Next, the plates were covered with the Breathe-Easy membrane and incubated. After 72 h, the Multidrop dispensed 15 uL per well of Cell Titer Glo 2.0 (Thermo Fischer Scientific, Waltham, MA, USA) and plates were incubated in the dark for 10 min. After incubation, luminescence excitation was assessed in the Spectramax reader (Molecular Devices, San Jose, CA, USA) (top read, luminescence excitation at 500 nm) and raw data were processed in Microsoft Excel to subtract background luminescence. […] Screens with a Z-factor value of >0.5 were used for further analysis.
as §5, §3

[7] = system: GCPA028 T1.II patient-derived AGCT cell line; assay: Cell viability drug screen (Cell Titer Glo 2.0, 72 h), mono- and combination therapy, GCPA028; settings: Homo sapiens, 72 h, read-out: IC50 in monotherapy
[8] = system: GCPA096 T1.V patient-derived AGCT cell line; assay: Cell viability drug screen (Cell Titer Glo 2.0, 72 h), mono- and combination therapy, GCPA096T1.V; settings: Homo sapiens, 72 h, read-out: IC50 in monotherapy
Method: as §6, §5, §3

[9] = system: KGN cells (AGCT cell line); assay: Cell viability drug screen (Cell Titer Glo 2.0, 72 h), mono- and combination therapy, KGN; settings: Homo sapiens, read-out: IC50 in monotherapy
Method: KGN was cultured in conditions identical to AGCT-patient-derived cell lines.
as §6, §2

[10] = system: GCPA096 T1.XVI patient-derived AGCT cell line; assay: Cell viability drug screen (Cell Titer Glo 2.0, 72 h), mono- and combination therapy, GCPA096T1.XVI; settings: Homo sapiens, read-out: IC50 in monotherapy
Method: as §6, §5, §3

[11] = system: GCPA096 T1.II patient-derived AGCT cell line; assay: Cell viability drug screen (Cell Titer Glo 2.0, 72 h), mono- and combination therapy, GCPA096T1.II; settings: Homo sapiens, 72 h, read-out: IC50 in monotherapy
[12] = system: GCPA113 T1.III patient-derived AGCT cell line; assay: Cell viability drug screen (Cell Titer Glo 2.0, 72 h), mono- and combination therapy, GCPA113T1.III; settings: Homo sapiens, read-out: IC50 in monotherapy
Method: as §1, §2, §3

AGCT cell lines = assay: Cell viability drug screen (72 h), summary over AGCT cell lines (12 patient-derived, with or without KGN); type: cell-based, human
Method: as §4, §5, §3

[13] = system: GCPA108 T3.IV patient-derived AGCT cell line; assay: Cell viability drug screen (Cell Titer Glo 2.0, 72 h), mono- and combination therapy, GCPA108T3.IV; settings: Homo sapiens, read-out: IC50 in monotherapy
Method: as §4, §5, §3

Structure (SMILES) | IC50 ([1]; 72 h) [µM] | IC50 ([2]; 72 h) [µM] | IC50 [3] [µM] | IC50 ([4]; 72 h) [µM] | IC50 ([5]; 72 h) [µM] | IC50 [6] [µM] | IC50 [7] [µM] | IC50 [8] [µM] | IC50 ([9]; 72 h) [µM] | IC50 ([10]; 72 h) [µM] | IC50 [11] [µM] | IC50 ([12]; 72 h) [µM] | IC50 ([13]; 72 h) [µM] | also measured
N#Cc1ccc(C(c2ccc(C#N)cc2)n2cncn2)cc1 [Letrozole] | > 50 | > 50 | > 50 | > 50 | > 50 | > 50 | > 50 | > 50 | 35.4 | > 50 | > 50 | > 50 |  | 
CC(=O)O[C@H]1C(=O)[C@@]2(C)[C@H]([C@H](OC(=O)c3ccccc3)[C@]3(O)C[C@H](OC(=O)[C@H](O)[C@@H](NC(=O)c4ccccc4)c4ccccc4)C(C)=C1C3(C)C)[C@]1(OC(C)=O)CO[C@@H]1C[C@@H]2O [Paclitaxel] | > 50 | > 50 | > 50 | > 50 | 48.3 | > 50 |  | > 50 | > 50 | > 50 | > 50 | > 50 | > 50 | IC50 (AGCT cell lines; Homo sapiens, median over AGCT cell lines, read-out: median IC50 in monotherapy): 93.3 µM; IC50 [13]: > 50 µM; IC50 [1]: > 50 µM; IC50 [2]: > 50 µM; IC50 [4]: > 50 µM; IC50 [5]: 48.3 µM; IC50 [9]: > 50 µM; IC50 [10]: > 50 µM; IC50 [12]: > 50 µM
CC/C(=C(\c1ccccc1)c1ccc(OCCN(C)C)cc1)c1ccccc1 [Tamoxifen] |  |  |  |  |  |  |  |  |  |  |  |  |  | range IC10 (concentration needed to obtain 10% cell death) (AGCT cell lines; range over AGCT cell lines, monotherapy): 6.04 to 15.03 µM
CC(=O)[C@@]1(O)CC[C@H]2[C@@H]3CCC4=CC(=O)CCC4=C3[C@@H](c3ccc(N(C)C)cc3)C[C@@]21C [Ulipristal] | > 50 | > 50 | > 50 | > 50 | > 50 | > 50 | 49.9 | > 50 | 43.7 | > 50 | > 50 | > 50 | > 50 | 
